{"source": "paper PMC4193777", "about": "(PLoS ONE, 2014)", "key": {"FPR2 [1]": {"molecular_target": "T1, FPR2 (Homo sapiens, UniProt P25090)", "T1 construct": "Human peripheral blood neutrophils were isolated from buffy coats from healthy blood donors; endogenous in cells; host or cells: primary human peripheral blood neutrophils from buffy coats of healthy donors", "T1 sequence (P25090 1-351)": "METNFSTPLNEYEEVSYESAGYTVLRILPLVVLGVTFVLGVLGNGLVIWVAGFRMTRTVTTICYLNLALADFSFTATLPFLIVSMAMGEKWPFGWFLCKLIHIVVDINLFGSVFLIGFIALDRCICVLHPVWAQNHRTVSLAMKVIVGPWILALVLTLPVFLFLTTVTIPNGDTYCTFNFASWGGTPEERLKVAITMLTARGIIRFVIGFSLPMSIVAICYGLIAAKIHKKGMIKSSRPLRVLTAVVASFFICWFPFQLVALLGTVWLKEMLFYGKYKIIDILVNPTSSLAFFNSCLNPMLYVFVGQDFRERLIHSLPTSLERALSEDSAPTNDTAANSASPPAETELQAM", "experiment": "Homologous desensitization of neutrophils (superoxide)", "type": "cell-based", "settings": "first F2Pal10 (500 nM) then WKYMVM (40 nM), or reversed order, five minutes apart", "protocol": "Human peripheral blood neutrophils were isolated from buffy coats from healthy blood donors using dextran sedimentation and Ficoll-Paque gradient centrifugation as described. The remaining erythrocytes were disrupted by hypotonic lysis, the neutrophils were washed twice, resuspended in KRG, and stored on melting ice until use. This isolation procedure permits cells to be purified with minimal granule mobilization.\nThe NADPH-oxidase activity was determined using isoluminol-enhanced chemiluminescence (CL), [27]. The CL activity was measured in a six-channel Biolumat LB 9505 (Berthold Co., Wildbad, Germany), using disposable 4-ml polypropylene tubes with a 900 µl reaction mixture containing 10^5 cells, isoluminol (2×10^−5 M) and HRP (2 U). The tubes were equilibrated in the Biolumat for 5 min at 37°C, after which the stimulus (100 µl) was added and the light emission was recorded continuously. […]\nFigure 1 The F2Pal10 pepducin specifically activates FPR2. A. Primary human neutrophils were activated by F2Pal10 (500 nM) in the absence (solid line) or presence of the receptor specific inhibitor PBP10 (FPR2 specific inhibitor; 1 µM final concentration, dashed line) or the FPR1 antagonist cyclosporin H (CysH; 1 µM final concentration, dotted line) and the release of superoxide anions was recorded continuously. […] The release of superoxide anions was recorded continuously. […]"}, "neutrophils": {"test_system": "neutrophils", "experiment": "Calcium mobilization in neutrophils", "type": "cell-based, human", "settings": "WKYMVM 100 nM or F2Pal10 500 nM", "protocol": "Neutrophils or transfected HL-60 cells at a density of 5×10^7 cells/ml in KRG containing 0.1% BSA were loaded with 5 µM FURA 2-AM for 30 minutes in the dark at room temperature. The cells were then diluted 1/2 in RPMI 1640 culture medium without phenol red (PAA Laboratories GmbH, Pasching, Austria) and centrifuged. Finally, the cells were washed once with KRG and resuspended in the same buffer at a density of 2×10^7/ml. Calcium measurements were carried out in a PerkinElmer fluorescence spectrophotometer (LC50), with excitation wavelengths of 340 nm and 380 nm, an emission wavelength of 509 nm, and slit widths of 5 nm and 10 nm, respectively. The transient rise in intracellular calcium is presented as the ratio of fluorescence intensities (340 nm: 380 nm) detected. The measuring cuvette contained catalase (2000 U) to counteract inactivation of the chemoattractants by the MPO-H2O2-system. […] The relative calcium level was expressed as a ratio between Fluo-3 and Fura Red (FL-1/FL-3) fluorescence over time.\nFigure 5 F2Pal10 induces pertussis toxin sensitive superoxide production and triggers mobilization of calcium from intracellular stores. […] Abscissa, time of study (sec); ordinate, fluorescence (arbitrary unit). […]"}, "FPR2 [2]": {"test_system": "FPR2", "experiment": "Calcium mobilization in undifferentiated HL-60 cells overexpressing FPR2", "type": "cell-based", "settings": "Fura-2; F2Pal10 10 nM", "description": "The procedures used to obtain stable expression of FPR1 and FPR2 in undifferentiated HL-60 cells have been previously described. To prevent possible auto-differentiation due to the accumulation of differentiation factors in the culture medium, cells were passed twice a week before they reached a density of 2×10^6 cells/ml. At each passage, an aliquot of the cell culture was centrifuged, the supernatant was discarded and the cell pellet was resuspended in fresh RPMI 1640 medium containing FCS (10%), PEST (1%), and G418 (1 mg/ml).\nNeutrophils or transfected HL-60 cells at a density of 5×10^7 cells/ml in KRG containing 0.1% BSA were loaded with 5 µM FURA 2-AM for 30 minutes in the dark at room temperature. […] Calcium measurements were carried out in a PerkinElmer fluorescence spectrophotometer (LC50), with excitation wavelengths of 340 nm and 380 nm, an emission wavelength of 509 nm, and slit widths of 5 nm and 10 nm, respectively. The transient rise in intracellular calcium is presented as the ratio of fluorescence intensities (340 nm: 380 nm) detected. […] The relative calcium level was expressed as a ratio between Fluo-3 and Fura Red (FL-1/FL-3) fluorescence over time.\nFigure 1 The F2Pal10 pepducin specifically activates FPR2. […] The release of superoxide anions was recorded continuously. […] Abscissa, time of study (sec); ordinate, fluorescence (arbitrary units)."}}}
{"smiles": "CSCC[C@H](NC(=O)[C@@H](NC(=O)[C@H](CCSC)NC(=O)[C@H](Cc1ccc(O)cc1)NC(=O)[C@H](CCCCN)NC(=O)[C@@H](N)Cc1c[nH]c2ccccc12)C(C)C)C(N)=O", "note": "[WKYMVM]", "values": [{"measurement": "desensitization to second FPR2 agonist", "setting": "FPR2 [1]", "result": "vice versa"}, {"measurement": "rise in cytosolic Ca2+ in neutrophils", "setting": "neutrophils; Fluo-3/Fura Red, without EGTA", "result": "a rise in the cytosolic concentration of Ca^2+ was induced"}, {"measurement": "rise in cytosolic Ca2+ in neutrophils, with EGTA", "setting": "neutrophils; extracellular Ca2+ removed by EGTA (2 mM)", "result": "The rise was evident also when extracellular Ca^2+ was removed"}, {"measurement": "intracellular calcium response, FPR2 HL-60 cells", "setting": "FPR2 [2]", "result": "time course of the response was very similar"}]}
